Results from patent US7205403B2, “8-Heteroaryl xanthine adenosine A2B receptor antagonists” (King Pharmaceuticals Research and Development, Inc., priority 2002, dated 2007).
“Also recorded” adds a separate entry of the source. Read-outs that look alike come from different tables or passages of the source.

Legend:
[1] = target: T1, human A2A adenosine receptor (Homo sapiens, UniProt P29274); test: [3H]ZM241385 binding to human A2A receptors expressed in CHO cells; details: for Ki: read-out: Ki, [3H]ZM241385 binding to human A2A receptors expressed in CHO cells
T1 construct: expressed in transfected cells; host or cells: CHO cells (membranes)
Method: (§1) The cells were grown adherently and maintained in Dulbecco's modified Eagle's medium with nutrient mixture F12 without nucleosides at 37° C. in 5% CO2/95% air. The cells were washed with phosphate-buffered saline and scraped off flasks in ice cold hypotonic buffer ([…] Tris HCl, 2 mM EDTA, pH 7.4). The cell suspension was homogenized with a Polytron and the homogenate was centrifuged for 30 minutes at 48,000 g. The resultant membrane pellet was re-suspended in 50 mM Tris HCl buffer at pH 7.4 for A1 adenosine receptors; in 50 mM Tris HCl 10 mM MgCl, at pH 7.4 for A2A adenosine receptors; in 50 mM Tris HCl, 10 mM MgCl2, 1 mM EDTA, at pH 7.4 for A3 adenosine receptors and were utilized for binding assays.
(§2) The filter bound radioactivity was counted on Top Count (efficiency 57%) with Micro-Scint 20.
(§3) The filter bound radioactivity was counted on a Top Count brand Microplate Scintillation Counter (efficiency 57%) with Micro-Scint 20. […] Inhibitory binding constant. […] Results and Discussion

[2] = target: T2, human A2B adenosine receptor (Homo sapiens, UniProt P29275); test: [3H]DPCPX binding to human A2B receptors expressed in HEK293 cells; parameters: host or cells: HEK 293 cells (membranes); details: geometric mean (95% confidence interval); >1000 = no appreciable binding; read-out: Ki, [3H]DPCPX binding to human A2B receptors expressed in HEK293 cells
T2 sequence (P29275 1-332): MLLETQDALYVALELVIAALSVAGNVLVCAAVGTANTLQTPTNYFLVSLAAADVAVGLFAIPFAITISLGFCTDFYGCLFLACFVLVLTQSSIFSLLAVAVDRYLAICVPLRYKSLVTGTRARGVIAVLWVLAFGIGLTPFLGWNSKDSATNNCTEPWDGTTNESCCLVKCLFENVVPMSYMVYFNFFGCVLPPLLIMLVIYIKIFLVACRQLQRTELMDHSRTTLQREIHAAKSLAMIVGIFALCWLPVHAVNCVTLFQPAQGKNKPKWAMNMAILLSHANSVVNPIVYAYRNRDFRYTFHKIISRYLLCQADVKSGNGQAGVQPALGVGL
Method: HEK 293 cells transfected with the human recombinant A2B adenosine receptor were obtained from Receptor Biology, Inc. (Beltsville, Md. USA).
Binding of 1 [^3H]-DPCPX to HEK 293 cells transfected with the human recombinant A2B adenosine receptors was performed according to the method described by Varani et al., 2000. In particular, assays were carried out for 60 minutes at 25° C. in 100 μl of […] Tris HCl buffer, […] MgCl2, 1 mM EDTA, 0.1 mM benzamidine pH 7.4, 2 IU/ml adenosine deaminase containing 40 nM [^3H]-DPCPX, diluted membranes (20 μg of protein/assay) and at least 6–8 different concentration of tested compounds.
as §2, §3

[3] = target: T3, human A3 adenosine receptor (Homo sapiens, UniProt P0DMS8); test: [3H]MRE3008F20 binding to human A3 receptors expressed in CHO cells
T3 construct: expressed in transfected cells; host or cells: CHO cells (membranes)
T3 sequence (P0DMS8 1-318): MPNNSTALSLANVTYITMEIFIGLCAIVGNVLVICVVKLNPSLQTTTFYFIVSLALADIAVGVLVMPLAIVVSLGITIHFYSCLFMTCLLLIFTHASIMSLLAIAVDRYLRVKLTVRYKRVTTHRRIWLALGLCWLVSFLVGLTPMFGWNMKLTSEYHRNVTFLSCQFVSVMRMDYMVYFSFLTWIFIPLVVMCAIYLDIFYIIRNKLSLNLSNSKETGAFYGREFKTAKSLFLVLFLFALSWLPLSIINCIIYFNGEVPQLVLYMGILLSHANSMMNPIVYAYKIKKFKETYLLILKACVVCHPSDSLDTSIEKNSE
Method: as §1
Binding of [^3H]-MRE3008-F20 to CHO cells transfected with the human recombinant A3 adenosine receptors was performed according to Varani et al., 2000. Competition experiments were carried out in duplicate in a final volume of 250 μl in test tubes containing 1 nM [^3H]-MRE3008-F20, 50 mM Tris HCl buffer, […] MgCl2, pH 7.4 and 100 μl of diluted membranes (50 μg of protein/assay) and at least 6–8 different concentrations of examined ligands for 120 minutes at 4° C.
as §2, §3

[4] = target: T4, human A1 adenosine receptor (Homo sapiens, UniProt P30542); test: [3H]DPCPX binding to human A1 receptors expressed in CHO cells
T4 construct: expressed in transfected cells; host or cells: CHO cells (membranes)
T4 sequence (P30542 1-326): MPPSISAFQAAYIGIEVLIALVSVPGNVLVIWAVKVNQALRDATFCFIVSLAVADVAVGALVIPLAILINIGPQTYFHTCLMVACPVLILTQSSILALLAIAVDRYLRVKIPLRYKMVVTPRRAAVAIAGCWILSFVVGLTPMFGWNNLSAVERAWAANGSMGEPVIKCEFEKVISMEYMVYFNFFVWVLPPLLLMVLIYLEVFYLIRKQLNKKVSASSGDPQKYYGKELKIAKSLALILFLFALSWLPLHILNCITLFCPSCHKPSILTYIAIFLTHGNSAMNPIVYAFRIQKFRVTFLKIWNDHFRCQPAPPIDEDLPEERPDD
Method: as §1
Displacement experiments were performed for 120 minutes at 25° C. in 200 μl of buffer containing 1 nM ^3H]-DPCPX 20 μl of diluted membranes (50 μg of protein/assay) and at least 6 to 8 different concentrations of examined compounds.
as §2, §3

[5] = geometric mean (95% confidence interval), >1000 = no appreciable binding

T1 sequence (P29274 whole entry): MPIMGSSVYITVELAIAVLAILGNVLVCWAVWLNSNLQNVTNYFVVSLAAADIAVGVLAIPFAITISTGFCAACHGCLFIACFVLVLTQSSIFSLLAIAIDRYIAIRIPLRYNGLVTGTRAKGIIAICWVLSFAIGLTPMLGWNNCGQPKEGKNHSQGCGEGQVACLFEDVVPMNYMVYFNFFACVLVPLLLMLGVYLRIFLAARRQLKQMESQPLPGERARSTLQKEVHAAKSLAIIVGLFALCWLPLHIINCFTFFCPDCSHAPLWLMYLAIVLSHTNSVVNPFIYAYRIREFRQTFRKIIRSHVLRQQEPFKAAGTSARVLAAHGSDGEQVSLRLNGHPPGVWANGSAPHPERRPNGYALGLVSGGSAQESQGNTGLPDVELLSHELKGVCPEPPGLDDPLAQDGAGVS

| Structure (SMILES) | Ki [1] [nM] | Ki [2] [nM] | Ki [3] [nM] | Ki [4, 5] [nM] | Ki, [3H]ZM241385 binding to human A2A receptors expressed in CHO cells [1, 5] | Ki, [3H]MRE3008F20 binding to human A3 receptors expressed in CHO cells [3, 5] | Ki, [3H]DPCPX binding to human A1 receptors expressed in CHO cells [4, 5] | Ki [4] [nM] |
| --- | --- | --- | --- | --- | --- | --- | --- | --- |
| CCCn1c(=O)c2[nH]c(-c3cc(NC(=O)Nc4cccc(OC)c4)nn3C)nc2n(CCC)c1=O [AS55, N-[5-(2,6-dioxo-1,3-dipropyl-2,3,6,7-tetrahydro-1H-purin-8-yl)-1-methyl-1H-pyrazol-3-yl]-N'-(3-methoxyphenyl)urea] | > 1000 | 90 | > 1000 | 1990 |  |  |  |  |
| CCCn1c(=O)c2[nH]c(-c3cc(NC(=O)Cc4ccc(O)cc4)nn3C)nc2n(CCC)c1=O [AS17, 2-[4-hydroxyphenyl]-N-[5-(2,6-dioxo-1,3-dipropyl-2,3,6,9-tetrahydro-1H-purin-8-yl)-1-methyl-1H-pyrazol-3-yl]acetamide] | > 1000 | 103 | > 1000 |  | no appreciable affinity; also recorded: without significant binding | no appreciable affinity; also recorded: without significant binding | no appreciable affinity; also recorded: without significant binding |  |
| Cn1nc(N)cc1-c1nc2c([nH]1)c(=O)n(C)c(=O)n2C [AS38, 8-(3-amino-1-methyl-1H-pyrazol-5-yl)-1,3-dimethyl-3,7-dihydro-1H-purine-2,6-dione] | > 1000 | 175 | > 1000 |  |  |  |  | > 1000 |
| CCCn1c(=O)c2[nH]c(-c3cc(NC(=O)Cc4cccc(F)c4)nn3C)nc2n(CCC)c1=O [AS25, N-[5-(2,6-dioxo-1,3-dipropyl-2,3,6,9-tetrahydro-1H-purin-8-yl)-1-methyl-1H-pyrazol-3-yl]-2-(3-fluorophenyl)acetamide] | > 1000 | 50 | > 1000 | 3230 |  |  |  |  |
| CCCn1c(=O)c2[nH]c(-c3ccc(O)nc3)nc2n(CCC)c1=O [AS103, 1,3-di-n-propyl-8-(2-hydroxypyridin-5-yl)-xanthine] | 606 | 4.9 | 116 |  |  |  |  | 81 |
| CCCn1c(=O)c2c(nc(/C=C/c3cc(C(=O)OCC)n(C)c3)n2C)n(CCC)c1=O [AS33, ethyl 4-[(E)-2-(7-methyl-1,3-dipropyl-2,6-dioxo-2,3,6,7-tetrahydro-1H-purin-8-yl)vinyl]-1-methyl-1H-pyrrole-2-carboxylate] | > 1000 | > 1000 | > 1000 |  |  |  |  | > 1000 |
| CCCn1c(=O)c2[nH]c(-c3cc(OCC(=O)Nc4ccc(F)cc4)n(C)n3)nc2n(CCC)c1=O [AS61, N-(4-fluorophenyl)-2-{[3-(2,6-dioxo-1,3-dipropyl-2,3,6,9-tetrahydro-1H-purin-8-yl)-1-methyl-1H-pyrazol-5-yl]oxy}acetamide] | > 1000 | 185 | > 1000 | 181 |  |  |  |  |
| CCCn1c(=O)c2[nH]c(-c3cc(OCC(=O)Nc4ccc(C)c(C)c4)nn3C)nc2n(CCC)c1=O [AS99, 1,3-di-n-propyl-8-{5-[(3,4-dimethyl-phenylcarbamoyl)-methoxy]-2-methyl-2H-pyrazole-3-yl}-xanthine] | > 1000 | 10 | > 1000 | 700 |  |  |  |  |
| CC(C)Cn1c(=O)c2[nH]c(-c3cc(OCC(=O)Nc4ccc(Br)cc4)n(C)n3)nc2n(CC(C)C)c1=O [AS63, 2-{[3-(1,3-diisobutyl-2,6-dioxo-2,3,6,9-tetrahydro-1H-purin-8-yl)-1-methyl-1H-pyrazol-5-yl]oxy}-N-(4-bromophenyl)acetamide] | > 1000 | 66 | > 1000 | 49 |  |  |  |  |
| CCCn1c(=O)c2[nH]c(-c3cc(NC(=O)Nc4ccc(N(C)C)cc4)nn3C)nc2n(CCC)c1=O [AS53, N-[4-(dimethylamino)phenyl]-N'-[5-(2,6-dioxo-1,3-dipropyl-2,3,6,7-tetrahydro-1H-purin-8-yl)-1-methyl-1H-pyrazol-3-yl]urea] | > 1000 | 59 | > 1000 | 2410 |  |  |  |  |
| CCCn1c(=O)c2[nH]c(-c3cc(OCC(=O)N4CCN(Cc5ccccc5)CC4)nn3C)nc2n(CCC)c1=O [AS90] |  | 85 |  | 810 |  |  |  |  |
| CCCn1c(=O)c2[nH]c(-c3cc(NC(=O)CCCN)nn3C)nc2n(CCC)c1=O [AS10, 4-{[5-(2,6-dioxo-1,3-dipropyl-2,3,6,7-tetrahydro-1H-purin-8-yl)-1-methyl-1H-pyrazol-3-yl]amino}-4-oxobutan-1-aminium chloride] | > 1000 | 2060 | > 1000 | 548 |  |  |  |  |
| CCCn1c(=O)c2c(nc(/C=C/c3cc(COC(=O)c4ccccc4)on3)n2C)n(CCC)c1=O [AS20, {3-[(E)-2-(1,3-dipropyl-7-methyl-2,6-dioxo-2,3,6,7-tetrahydro-1H-purin-8-yl)vinyl]isoxazol-5-yl}methyl benzoate] | > 1000 | > 1000 | > 1000 |  |  |  |  | > 1000 |
| CCCn1c(=O)c2[nH]c(-c3cc(OCC(=O)Nc4ccc(Cl)c(Cl)c4)nn3C)nc2n(CCC)c1=O [AS100, 1,3-di-n-propyl-8-{5-[(3,4-chloro-phenylcarbamoyl)-methoxy]-2-methyl-2H-pyrazole-3-yl}-xanthine] | > 1000 | 16 | > 1000 | 300 |  |  |  |  |
| CC(C)Cn1c(=O)c2nc(-c3cc(OCC(=O)Nc4ccc(F)cc4)nn3C)[nH]c2n(CC(C)C)c1=O [AS66, 2-{[5-(1,3-diisobutyl-2,6-dioxo-2,3,6,9-tetrahydro-1H-purin-8-yl)-1-methyl-1H-pyrazol-3-yl]oxy}-N-(4-fluorophenyl)acetamide] |  | 303 |  | 467 |  |  |  |  |
| CCCn1c(=O)c2[nH]c(-c3cc(OCC(=O)Nc4ccc(C(C)CC)cc4)nn3C)nc2n(CCC)c1=O (stereo not shown) [AS91, 1,3-di-n-propyl-8-{5-[(4-sec-butyl-phenylcarbamoyl)-methoxy]-2-methyl-2H-pyrazole-3-yl}-xanthine] |  | 74 |  | 1000 |  |  |  |  |
| CCCn1c(=O)c2[nH]c(-c3cc(OCC(=O)Nc4ccncc4)nn3C)nc2n(CCC)c1=O [AS89] |  | 41 |  | 955 |  |  |  |  |
| CCCn1c(=O)c2[nH]c(-c3cc(N)n(C)n3)nc2n(CCC)c1=O [AS37, 8-(5-amino-1-methyl-1H-pyrazol-3-yl)-1,3-dipropyl-3,7-dihydro-1H-purine-2,6-dione] |  | 58 |  | 140 |  |  |  |  |
